Measured values as given in the supplement of paper PMC10307832.

Assays:
Test in all cases: relative viability (nuclei count vs DMSO), 5 days (fraction); higher = more cells survive
[1] = test system: HCC-827
In short: (§1)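 Lung cancer cell lines in 1536-well plates were dosed by pin tool the day after seeding, either with one drug alone or with a fixed anchor-drug dose plus five library-drug doses (not always all listed) in √10 steps. After 5 days, cells were fixed and their nuclei stained in one step (final 0.05% Triton X-100, 1% formaldehyde, 1 ug/ml Hoechst), then counted on 4× images. Relative viability is the nuclei count in treated wells divided by that in vehicle wells. Values are medians of duplicate plates.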

[2] = test system: EPLC-272H
In short: as §1

[3] = test system: NCI-H2342
In short: as §1

[4] = test system: SW 1573
In short: as §1

[5] = test system: EKVX
In short: as §1

[6] = test system: NCI-H647
In short: as §1

[7] = test system: LOU-NH91
In short: as §1

[8] = test system: NCI-H1975
In short: as §1

[9] = test system: NCI-H1437
In short: as §1

[10] = test system: HCC-44
In short: as §1

[11] = test system: H3255
In short: as §1

[12] = test system: NCI-H650
In short: as §1

[13] = test system: NCI-H1666
In short: as §1

[14] = test system: BEN
In short: as §1

[15] = test system: NCI-H2087
In short: as §1

[16] = test system: COR-L 105
In short: as §1

[17] = test system: LU99A
In short: as §1

[18] = test system: NCI-H2085
In short: as §1

[19] = test system: LCLC-97TM1
In short: as §1

[20] = test system: 201T
In short: as §1

[21] = test system: NCI-H2170
In short: as §1

[22] = test system: PC-3 [JPC-3]
In short: as §1

## CCN(CC)CCCCNc1ncc2cc(-c3cc(OC)cc(OC)c3)c(NC(=O)NC(C)(C)C)nc2n1 + Nc1ncn([C@H]2C[C@H](O)[C@@H](CO)O2)c(=O)n1 [Decitabine] (partner 2 µM)
[1]; first compound 0.01 µM
  relative viability: 0.311
[1]; first compound 0.03162 µM
  relative viability: 0.369
[1]; first compound 0.1 µM
  relative viability: 0.346
[1]; first compound 0.3162 µM
  relative viability: 0.376
[1]; first compound 1 µM
  relative viability: 0.284
[2]; first compound 0.01 µM
  relative viability: 0.384
[2]; first compound 0.1 µM
  relative viability: 0.359
[2]; first compound 0.3162 µM
  relative viability: 0.378
[2]; first compound 1 µM
  relative viability: 0.331
[3]; first compound 0.01 µM
  relative viability: 0.692
[3]; first compound 0.03162 µM
  relative viability: 0.668
[3]; first compound 0.1 µM
  relative viability: 0.697
[3]; first compound 0.3162 µM
  relative viability: 0.781
[3]; first compound 1 µM
  relative viability: 0.807
[4]; first compound 0.01 µM
  relative viability: 0.441
[4]; first compound 0.03162 µM
  relative viability: 0.528
[4]; first compound 0.1 µM
  relative viability: 0.583
[4]; first compound 0.3162 µM
  relative viability: 0.591
[4]; first compound 1 µM
  relative viability: 0.435
[5]; first compound 0.03162 µM
  relative viability: 0.323
[5]; first compound 0.1 µM
  relative viability: 0.329
[5]; first compound 0.3162 µM
  relative viability: 0.314
[5]; first compound 1 µM
  relative viability: 0.295
[6]; first compound 0.01 µM
  relative viability: 0.429
[6]; first compound 0.03162 µM
  relative viability: 0.383
[6]; first compound 0.1 µM
  relative viability: 0.489
[6]; first compound 0.3162 µM
  relative viability: 0.349
[6]; first compound 1 µM
  relative viability: 0.361
[7]; first compound 0.01 µM
  relative viability: 0.799
[7]; first compound 0.03162 µM
  relative viability: 0.783
[7]; first compound 0.1 µM
  relative viability: 0.875
[7]; first compound 0.3162 µM
  relative viability: 0.801
[7]; first compound 1 µM
  relative viability: 0.804
[8]; first compound 0.01 µM
  relative viability: 0.396
[8]; first compound 0.03162 µM
  relative viability: 0.395
[8]; first compound 0.1 µM
  relative viability: 0.381
[8]; first compound 0.3162 µM
  relative viability: 0.389
[8]; first compound 1 µM
  relative viability: 0.358
[9]; first compound 0.01 µM
  relative viability: 0.599
[9]; first compound 0.03162 µM
  relative viability: 0.541
[9]; first compound 0.1 µM
  relative viability: 0.592
[9]; first compound 0.3162 µM
  relative viability: 0.58
[9]; first compound 1 µM
  relative viability: 0.578
[10]; first compound 0.01 µM
  relative viability: 0.944
[10]; first compound 0.03162 µM
  relative viability: 0.915
[10]; first compound 0.1 µM
  relative viability: 1.02
[10]; first compound 0.3162 µM
  relative viability: 0.949
[10]; first compound 1 µM
  relative viability: 0.979
[11]; first compound 0.01 µM
  relative viability: 0.453
[11]; first compound 0.1 µM
  relative viability: 0.65
[11]; first compound 0.3162 µM
  relative viability: 0.712
[11]; first compound 1 µM
  relative viability: 0.448
[12]; first compound 0.01 µM
  relative viability: 0.14
[12]; first compound 0.03162 µM
  relative viability: 0.272
[12]; first compound 0.1 µM
  relative viability: 0.33
[12]; first compound 0.3162 µM
  relative viability: 0.332
[12]; first compound 1 µM
  relative viability: 0.326
[13]; first compound 0.01 µM
  relative viability: 0.695
[13]; first compound 0.03162 µM
  relative viability: 0.791
[13]; first compound 0.1 µM
  relative viability: 0.761
[13]; first compound 0.3162 µM
  relative viability: 0.759
[13]; first compound 1 µM
  relative viability: 0.79
[14]; first compound 0.01 µM
  relative viability: 0.691
[14]; first compound 0.03162 µM
  relative viability: 0.728
[14]; first compound 0.1 µM
  relative viability: 0.808
[14]; first compound 0.3162 µM
  relative viability: 0.797
[14]; first compound 1 µM
  relative viability: 0.572
[15]; first compound 0.01 µM
  relative viability: 0.314
[15]; first compound 0.03162 µM
  relative viability: 0.29
[15]; first compound 0.1 µM
  relative viability: 0.302
[15]; first compound 0.3162 µM
  relative viability: 0.284
[15]; first compound 1 µM
  relative viability: 0.317
[16]; first compound 0.01 µM
  relative viability: 0.591
[16]; first compound 0.03162 µM
  relative viability: 0.777
[16]; first compound 0.1 µM
  relative viability: 0.692
[16]; first compound 0.3162 µM
  relative viability: 0.786
[16]; first compound 1 µM
  relative viability: 0.669
[17]; first compound 0.01 µM
  relative viability: 1.01
[17]; first compound 0.03162 µM
  relative viability: 0.82
[17]; first compound 0.1 µM
  relative viability: 0.861
[17]; first compound 0.3162 µM
  relative viability: 0.944
[17]; first compound 1 µM
  relative viability: 0.79
[18]; first compound 0.01 µM
  relative viability: 0.559
[18]; first compound 0.03162 µM
  relative viability: 0.603
[18]; first compound 0.1 µM
  relative viability: 0.564
[18]; first compound 0.3162 µM
  relative viability: 0.533
[18]; first compound 1 µM
  relative viability: 0.549
[19]; first compound 0.01 µM
  relative viability: 0.269
[19]; first compound 0.03162 µM
  relative viability: 0.251
[19]; first compound 0.1 µM
  relative viability: 0.321
[19]; first compound 0.3162 µM
  relative viability: 0.272
[19]; first compound 1 µM
  relative viability: 0.255
[20]; first compound 0.01 µM
  relative viability: 0.864
[20]; first compound 0.03162 µM
  relative viability: 0.847
[20]; first compound 0.1 µM
  relative viability: 0.86
[20]; first compound 0.3162 µM
  relative viability: 0.857
[20]; first compound 1 µM
  relative viability: 0.83
[21]; first compound 0.01 µM
  relative viability: 0.474
[21]; first compound 0.03162 µM
  relative viability: 0.427
[21]; first compound 0.1 µM
  relative viability: 0.436
[21]; first compound 0.3162 µM
  relative viability: 0.47
[21]; first compound 1 µM
  relative viability: 0.497
[22]; first compound 0.03162 µM
  relative viability: 0.708
[22]; first compound 0.1 µM
  relative viability: 0.928
[22]; first compound 0.3162 µM
  relative viability: 0.851
[22]; first compound 1 µM
  relative viability: 0.804
